Reference: article PMC5700983 (Nature Communications, 2017)
Where two headings read alike, the source gives them in different places.

Tests used:
Te_PtxB [1] = target: T1, Te_PtxB (Trichodesmium erythraeum, UniProt Q119I9); test: biochemical; format: binding, Trichodesmium erythraeum IMS101
Ps_PtxB = Ps_PtxB (Stutzerimonas stutzeri, UniProt O69052); test: biochemical; format: binding, Pseudomonas stutzeri WM88
Pm_PhnD = Pm_PhnD (Prochlorococcus marinus, UniProt A3PC74); test: biochemical; format: binding, Prochlorococcus marinus MIT9301
Sequence of Pm_PhnD (A3PC74 25-297): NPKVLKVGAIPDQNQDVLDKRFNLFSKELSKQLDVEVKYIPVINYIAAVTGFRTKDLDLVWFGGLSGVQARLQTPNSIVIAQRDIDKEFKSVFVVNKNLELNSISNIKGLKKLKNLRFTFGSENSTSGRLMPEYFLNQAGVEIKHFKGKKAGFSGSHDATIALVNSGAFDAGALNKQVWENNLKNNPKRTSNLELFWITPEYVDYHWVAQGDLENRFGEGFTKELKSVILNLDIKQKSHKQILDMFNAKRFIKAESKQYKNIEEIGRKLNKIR

[2] = target: Te_PtxB, Pm_PhnD and Ps_PtxB; format: binding
Pm_PtxB = details: cited from earlier work
[3] = test system: E. coli strain devoid of its native phosphate acquisition systems; details: cited from earlier work
[4] = test system: E. coli strain devoid of its native phosphate acquisition systems; details: cited from earlier work; remark: listed apart in the source
HtxB [5] = target: T2, HtxB (Stutzerimonas stutzeri, UniProt O69061); test: biochemical
T2 sequence (O69061 34-298): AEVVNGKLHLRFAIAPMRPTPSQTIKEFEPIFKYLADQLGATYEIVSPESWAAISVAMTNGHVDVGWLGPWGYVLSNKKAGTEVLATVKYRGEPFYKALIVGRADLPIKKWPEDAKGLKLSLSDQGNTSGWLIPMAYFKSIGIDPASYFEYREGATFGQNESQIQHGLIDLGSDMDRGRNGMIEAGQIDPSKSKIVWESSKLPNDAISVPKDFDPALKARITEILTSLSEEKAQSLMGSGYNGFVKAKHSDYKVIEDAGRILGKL

Te_PtxB Y208A = Te_PtxB Y208A (Trichodesmium erythraeum, UniProt Q119I9, Y234A); test: biochemical
Sequence of Te_PtxB Y208A (Q119I9 28-298 Y234A limits assumed): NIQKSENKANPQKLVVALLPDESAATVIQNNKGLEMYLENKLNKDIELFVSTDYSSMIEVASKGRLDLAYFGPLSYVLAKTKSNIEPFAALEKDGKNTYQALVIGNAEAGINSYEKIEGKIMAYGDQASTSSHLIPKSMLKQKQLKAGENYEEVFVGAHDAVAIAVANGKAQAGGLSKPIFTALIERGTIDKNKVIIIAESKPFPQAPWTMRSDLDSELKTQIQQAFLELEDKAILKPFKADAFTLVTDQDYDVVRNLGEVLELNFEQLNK

Te_PtxB Y208F [6] = target: T3, Te_PtxB Y208F (Trichodesmium erythraeum, UniProt Q119I9, Y234F); test: biochemical
T3 sequence (Q119I9 28-298 Y234F limits assumed): as the sequence (Q119I9 28-298 Y234A limits assumed) above, with A207F counted along it

Te_PtxB [7] = target: T1, Te_PtxB; test: biochemical
HtxB [8] = target: T2, HtxB; details: pH 7.4
Te_PtxB Y208F [9] = target: T3, Te_PtxB Y208F
Ec_PhnD = details: cited from earlier work

Sequence of Ps_PtxB (O69052 24-287): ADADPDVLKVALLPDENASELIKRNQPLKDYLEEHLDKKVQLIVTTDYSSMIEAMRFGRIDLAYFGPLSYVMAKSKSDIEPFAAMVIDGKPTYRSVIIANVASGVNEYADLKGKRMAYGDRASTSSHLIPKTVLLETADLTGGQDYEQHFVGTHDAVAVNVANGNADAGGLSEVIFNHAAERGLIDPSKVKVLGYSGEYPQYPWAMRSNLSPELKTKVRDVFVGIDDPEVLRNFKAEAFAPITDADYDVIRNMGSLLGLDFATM
T1 sequence (Q119I9 28-298 limits assumed): as the sequence (Q119I9 28-298 Y234A limits assumed) above, with A207Y counted along it

## O=[PH](O)O [Phosphite, phosphite]
Te_PtxB [1]
  higher binding affinity for phosphite than phosphate and phosphonates, Te_PtxB: 2–4 orders of magnitude
Te_PtxB [1]; K d, Te_PtxB
  Kd: 0.17 ± 0.07 µM
Te_PtxB [1]; Kd, PtxB (approximate, authors' response)
  Kd: ~0.17 µM
Te_PtxB [1]; Kd, Te_PtxB WT (as quoted in peer review file)
  Kd: 0.17 µM
Ps_PtxB
  Kd: 0.24 ± 0.03 µM
Pm_PhnD
  Kd: 0.051 ± 0.004 µM
  higher binding affinity for phosphite than phosphate and phosphonates, Pm_PhnD: 2–4 orders of magnitude
[2]; read-out: K d range over Te_PtxB, Pm_PhnD and Ps_PtxB
  Kd: 0.05 to 0.24 µM
Pm_PtxB
  binding affinity for Pm_PtxB, in words: low micromolar
[3]
  growth of E. coli strain with PtxD and Ralstonia sp. 4506 PtxABC: grew
[4]
  growth of E. coli strain with HtxBCDE: did allow growth
HtxB [5]
  Kd: > 10000 µM
Te_PtxB Y208A; K d, Te_PtxB Y208A
  Kd: 134 ± 6.4 µM
Te_PtxB Y208A; Kd, Te_PtxB Y208A (as quoted in peer review file)
  Kd: 135 µM
Te_PtxB Y208F [6]; K d, Te_PtxB Y208F
  Kd: 295 ± 4.64 µM
Te_PtxB Y208F [6]; Kd, Te_PtxB Y208F (as quoted in peer review file)
  Kd: 295 µM
Te_PtxB [7]
  Kd: 0.289 ± 0.064 µM

## O=P(O)(O)O [Phosphate]
Ps_PtxB
  Kd: 159 ± 36 µM
HtxB [8]
  K d, HtxB: NBD
Te_PtxB Y208F [9]
  binding to Te_PtxB Y208F, result in words: essentially abolished
[3]
  growth of E. coli strain with PtxD and Ralstonia sp. 4506 PtxABC: grew
[4]
  growth of E. coli strain with HtxBCDE: did not allow growth
Te_PtxB Y208A
  Kd: 51.3 ± 1.76 µM
Te_PtxB Y208F [6]
  Kd: > 60000 µM

## NCCP(=O)(O)O [2-Aminoethylphosphonate, 2-aminoethylphosphonate]
Te_PtxB [1]; pH 7.4
  K d, Te_PtxB: NBD
Ps_PtxB; pH 7.4
  K d, Ps_PtxB: NBD
Pm_PhnD; pH 7.4
  K d, Pm_PhnD: NBD
[2]
  binding, result in words: None of the proteins showed any evidence of binding
Ec_PhnD
  binding affinity for Ec_PhnD, in words: low nanomolar
